We go through four molecules from patent EP0650958A1, “Hydrazones of indane-triones and their application in therapy” (LABORATOIRE INNOTHERA Société Anonyme, priority 1993, dated 1995).

Counter-ions that a name gives are not always drawn.

In experiment [1] the test system is hyperperméabilité vasculaire induite par le zymosan. Description: Vascular hyperpermeability induced by zymosan (extravasation of albumin or Evans blue). It is filed as in vivo. As to conditions: oral administration of 1-20 mg/kg. An excerpt:
(§1) Pour l'étude in vivo, ils sont administrés par voie intra-veineuse sous forme de solution aqueuse pure, par voie intrapéritonéale sous forme de solution aqueuse contenant ou non du DMSO ou par voie orale en solution ou en suspension dans la carboxyméthylcellulose ou dans une solution aqueuse composée contenant du Tween^(R) et dans certains cas du DMSO (diméthylsulfoxyde).
La perméabilité vasculaire est étudiée in vivo et in vitro par la mesure de l'extravasation d'albumine ou de colorant liant l'albumine (Bleu Evans). In vivo, l'hyperperméabilité est induite par l'injection d'une solution d'histamine, de bradykinine ou de zymosan. Les modèles in vitro permettent de réaliser des hyperpressions (sur un territoire vasculaire isolé) et/ou des réactions vasculaires inflammatoires.
A titre illustratif, les composés des exemples 1, 3, 6 et 9 inhibent l'hyperperméabilité vasculaire induite par le zymosan après administration orale de 1-20 mg/kg.

In another experiment the test system is veines saphènes de lapin. Briefly: Contraction of isolated rabbit saphenous vein rings produced by KCl (depolarisation). The conditions noted are these: for augmentent les contractions des veines saphènes de lapin produites par le KCl: KCl 40 mM, compounds 10 nM à 30 mM; for EC50: increase of contractions produced by KCl 40 mM, read-out: DE₅₀. The text has this: (§2) Pour l'étude in vitro, les composés sont solubilisés en solution aqueuse pure ou contenant du DMSO ou de l'alcool.
L'effet contractile est mesuré in vitro : • par la force de contraction développée par des anneaux vasculaires quiescents ou stimulés (soit électriquement soit par des agents physiologiques) et maintenus dans des conditions isométriques, • par la pression développée par des réseaux vasculaires perfusés à débit constant.
Les composés de l'invention et leurs sels éventuels augmentent la contraction des veines saphènes animales produite par la noradrénaline et la dépolarisation (solution hyperpotassique) sans affecter, dans la majorité des cas, les réponses contractiles artérielles. A titre illustratif, les composés des exemples 2, 3, 4, 7, et 9 (10 nM à 30 mM) augmentent de plus de 40 % (DE₅₀ ± 0,3 microM) les contractions des veines saphènes de lapin produites par le KCl (40 mM).

The test system of another experiment is pleurésie chez le rat. Briefly: Carrageenan-induced pleurisy (oedema and leukocyte migration). Type of experiment: in vivo. The conditions noted are these: 5 mg/kg i.p. given twice, 6 hours after carrageenan injection into the pleural cavity.
Text: as §1
L'activité antiinflammatoire est démontrée par la mesure de l'inhibition de l'oedème et de la migration leucocytaire après induction d'une pleurésie chez le rat par injection de carragénine dans la cavité pleurale (Almeida et col., J. Pharmacol. Exp. Therap., 1980, 214 : 74).
Le composé des exemples 3 et 4 administrés deux fois en i.p. à la dose de 5 mg/kg inhibent l'oedème et la migration leucocytaire dans la cavité pleurale, 6 heures après injection de carragénine dans le modèle de la pleurésie chez le rat.

Experiment [2] in a line: Free radical scavenging with DPPH as stable free radical. Type of experiment: physicochemical. The conditions noted are these: DPPH model, in vitro.
Text: as §2
L'effet "piégeur de radicaux libres" global est étudié in vitro par un modèle utilisant le 1,1-diphényl-2-picrylhydrazyl (DPPH) comme radical libre stable, méthode dérivée de celle décrite par Lamaison et col., Plantes Médic. et Phytothérapie, XXII, 1988, 231-234.

As for `O=C(NN=c1c(=O)c2ccccc2c1=O)n1cccc1` [exemple 1, 2.3-Dihydro-1.3-dioxo-2-(pyrrol-1-yl-carbonylhydrazono)-1H-indene], in experiment [1], the “hyperperméabilité vasculaire induite par le zymosan” value is “inhibent”.
In the case of `O=C(NN=c1c(=O)c2ccccc2c1=O)c1cccnc1` [exemple 2, 2.3-Dihydro-1.3-dioxo-2-[(3-pyridyl)carbonylhydrazono]-1H-indene, chlorhydrate], in the experiment with veines saphènes de lapin, the “augmentent les contractions des veines saphènes de lapin produites par le KCl” value is given as above 40% and the EC50 was around 300 nM.
`Nc1ccc(C(=O)NN=c2c(=O)c3ccccc3c2=O)cc1` [exemple 3, 2-(4-Aminophenylcarbonylhydrazono)-2.3-dihydro-1.3-dioxo-1H-indene, chlorhydrate]: in the experiment with veines saphènes de lapin, the “augmentent les contractions des veines saphènes de lapin produites par le KCl” value is above 40% and the EC50 was around 300 nM. Further, the “hyperperméabilité vasculaire induite par le zymosan” value in experiment [1] is “inhibent”. Also, in the experiment with pleurésie chez le rat, the “migration leucocytaire dans la cavité pleurale” value is “inhibent” and the oedème result is “inhibent”.
For the molecule `O=C(NN=c1c(=O)c2ccccc2c1=O)c1cccnc1` [exemple 6, 2.3-Dihydro-1.3-dioxo-2-[(3-pyridyl)carbonylhydrazono]-1H-indene, maleate], the effet antiradicalaire entry in experiment [2] is on record as “présentent un effet antiradicalaire”. Besides, the “hyperperméabilité vasculaire induite par le zymosan” value in experiment [1] is “inhibent”.
